{
  "source": "PubChem BioAssay AID1259411",
  "about": "(Chemical Carcinogenesis Research Information System (CCRIS), 2018)",
  "system": "rodent carcinogenicity bioassays, tumor incidence",
  "assay": "CCRIS carcinogenicity studies",
  "outline": "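Archive of carcinogenicity, mutagenicity, tumor promotion and tumor inhibition results drawn from journals, NCI reports and other sources, expert-reviewed; covers 1985-2011 and is no longer updated.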",
  "note": "Calls of active or inactive are those of the source. No rule for the calls is given here.",
  "data": [
    {"smiles": "CN(CC(=O)O)N=O", "values": [
      {"measurement": "carcinogen call", "setting": "Species: MOUSE, Route: INTRAPERITONEAL, Tumor Site: Type of Lesion: LIVER", "result": "active; positive"},
      {"measurement": "carcinogen call", "setting": "Species: MOUSE, Route: ORAL, Tumor Site: Type of Lesion: NASAL CAVITY", "result": "active; positive"},
      {"measurement": "carcinogen call", "setting": "Species: RAT, Route: ORAL, Tumor Site: Type of Lesion: ESOPHAGUS", "result": "active; positive"}
    ]},
    {"smiles": "CCCc1cc(=O)[nH]c(=S)[nH]1", "values": [
      {"measurement": "carcinogen call", "setting": "Species: HAMSTER, Route: ORAL, Tumor Site: Type of Lesion: THYROID GLAND", "result": "active; positive"},
      {"measurement": "carcinogen call", "setting": "Species: MOUSE, Route: ORAL, Tumor Site: Type of Lesion: PITUITARY GLAND, THYROID GLAND", "result": "active; positive"},
      {"measurement": "carcinogen call", "setting": "Species: RAT, Route: ORAL, Tumor Site: Type of Lesion: THYROID GLAND", "result": "active; positive"}
    ]},
    {"smiles": "Cc1cc2c(c3ccc4ccccc4c13)C=C[C@@H](O)[C@@H]2O", "values": [
      {"measurement": "carcinogen call", "setting": "Species: MOUSE, Strain/Sex: ICR/FEMALE, Route: INTRAPERITONEAL, Dose: 8 NMOL/5 µL DMSO ON DAY 1, 16 NMOL/10 µL ON DAY 8, AND 32 NMOL/20 µL ON DAY 15 OF AGE (STUDY DURATION: 35 WK), Tumor Site: Type of Lesion: LUNG: TUMORS, LIVER: TUMORS", "result": "active; positive"},
      {"measurement": "carcinogen call", "setting": "Species: MOUSE, Strain/Sex: ICR/MALE, Route: INTRAPERITONEAL, Dose: 8 NMOL/5 µL DMSO ON DAY 1, 16 NMOL/10 µL ON DAY 8, AND 32 NMOL/20 µL ON DAY 15 OF AGE (STUDY DURATION: 35 WK), Tumor Site: Type of Lesion: LUNG: TUMORS", "result": "active; positive"}
    ]},
    {"smiles": "CN(C)[C@@H]1C(=O)C(C(N)=O)=C(O)[C@@]2(O)C(=O)C3=C(O)c4c(O)cccc4[C@@](C)(O)[C@H]3[C@H](O)[C@@H]12", "values": [
      {"measurement": "carcinogen call", "setting": "Species: MOUSE, Strain/Sex: B6C3F1/FEMALE, Route: ORAL, Dose: 0, 6300, 12500 PPM IN DIET FOR 103 WK (STUDY DURATION: 103 WK), Dose: 0, 6300, 12500 PPM IN DIET FOR 103 WK (STUDY DURATION: 103 WK)", "result": "inactive; negative"},
      {"measurement": "carcinogen call", "setting": "Species: MOUSE, Strain/Sex: B6C3F1/MALE, Route: ORAL, Dose: 0, 6300, 12500 PPM IN DIET FOR 103 WK (STUDY DURATION: 103 WK), Dose: 0, 6300, 12500 PPM IN DIET FOR 103 WK (STUDY DURATION: 103 WK)", "result": "inactive; negative"},
      {"measurement": "carcinogen call", "setting": "Species: RAT, Strain/Sex: F344/FEMALE, Route: ORAL, Dose: 0, 25000, 50000 PPM IN DIET FOR 103 WK (STUDY DURATION: 103 WK), Dose: 0, 25000, 50000 PPM IN DIET FOR 103 WK (STUDY DURATION: 103 WK), Tumor Site: Type of Lesion: PITUITARY GLAND: ADENOMA", "result": "equivocal"},
      {"measurement": "carcinogen call", "setting": "Species: RAT, Strain/Sex: F344/MALE, Route: ORAL, Dose: 0, 25000, 50000 PPM IN DIET FOR 103 WK (STUDY DURATION: 103 WK), Dose: 0, 25000, 50000 PPM IN DIET FOR 103 WK (STUDY DURATION: 103 WK), Tumor Site: Type of Lesion: ADRENAL GLAND: PHEOCHROMOCYTOMA", "result": "equivocal"}
    ]},
    {"smiles": "Nc1ccc([N+](=O)[O-])cc1O", "values": [
      {"measurement": "carcinogen call", "setting": "Species: MOUSE, Strain/Sex: B6C3F1/FEMALE, Route: GAVAGE, Dose: 0, 400, 800 MG/KG IN CORN OIL 5D/WK FOR 103 WK (STUDY DURATION: 105 WK), Dose: 0, 400, 800 MG/KG IN CORN OIL 5D/WK FOR 103 WK (STUDY DURATION: 105 WK)", "result": "inactive; negative"},
      {"measurement": "carcinogen call", "setting": "Species: MOUSE, Strain/Sex: B6C3F1/MALE, Route: GAVAGE, Dose: 0, 400, 800 MG/KG IN CORN OIL 5D/WK FOR 103 WK (STUDY DURATION: 105 WK), Dose: 0, 400, 800 MG/KG IN CORN OIL 5D/WK FOR 103 WK (STUDY DURATION: 105 WK)", "result": "inactive; negative"},
      {"measurement": "carcinogen call", "setting": "Species: RAT, Strain/Sex: F344/FEMALE, Route: GAVAGE, Dose: 0, 100, 200 MG/KG IN CORN OIL 5D/WK FOR 103 WK (STUDY DURATION: 105 WK), Dose: 0, 100, 200 MG/KG IN CORN OIL 5D/WK FOR 103 WK (STUDY DURATION: 105 WK)", "result": "inactive; negative"},
      {"measurement": "carcinogen call", "setting": "Species: RAT, Strain/Sex: F344/MALE, Route: GAVAGE, Dose: 0, 100, 200 MG/KG IN CORN OIL 5D/WK FOR 103 WK (STUDY DURATION: 105 WK), Dose: 0, 100, 200 MG/KG IN CORN OIL 5D/WK FOR 103 WK (STUDY DURATION: 105 WK), Tumor Site: Type of Lesion: PANCREAS: ACINAR CELL ADENOMA, PANCREAS: ACINAR CELL ADENOMA OR CARCINOMA", "result": "active; positive"}
    ]},
    {"smiles": "O=C(O)CO", "values": [
      {"measurement": "carcinogen call", "setting": "Species: Mouse, Strain/Sex: SKH-1/Female (18/Group), Route: Dermal, Dose: 0, 4, 10% administered as topical cream (pH 3.5) , 5 d/wk, 40 wk, animals held an additional 12 wk for study duration of, Tumor Site: Type of Lesion: Skin: Carcinoma in situ, squamous cell carcinoma, basal cell carcinoma", "result": "inactive; negative. when synthetic solar light (ssl) at 0.3 and 0.6 the minimal erythema d"},
      {"measurement": "carcinogen call", "setting": "Species: Mouse, Strain/Sex: SKH-1/Male (18/Group), Route: Dermal, Dose: 0, 4, 10% administered as topical cream (pH 3.5) , 5 d/wk, 40 wk, animals held an additional 12 wk for study duration of, Tumor Site: Type of Lesion: Skin: Carcinoma in situ, squamous cell carcinoma, basal cell carcinoma", "result": "inactive; negative. when synthetic solar light (ssl) at 0.3 and 0.6 the minimal erythema d"}
    ]},
    {"smiles": "CS(=O)(=O)c1ccc([C@@H](O)[C@@H](CO)NC(=O)C(Cl)Cl)cc1", "values": [
      {"measurement": "carcinogen call", "setting": "Species: RAT, Strain/Sex: F344/FEMALE, Route: ORAL, Dose: 0, 125, 250 PPM IN DRINKING WATER FOR 104 WK (STUDY DURATION: 108 WK), Dose: 0, 125, 250 PPM IN DRINKING WATER FOR 104 WK (STUDY DURATION: 108 WK)", "result": "inactive; negative"},
      {"measurement": "carcinogen call", "setting": "Species: RAT, Strain/Sex: F344/MALE, Route: ORAL, Dose: 0, 125, 250 PPM IN DRINKING WATER FOR 104 WK (STUDY DURATION: 108 WK), Dose: 0, 125, 250 PPM IN DRINKING WATER FOR 104 WK (STUDY DURATION: 108 WK)", "result": "inactive; negative"}
    ]},
    {"smiles": "COC(=O)c1ccc(C(=O)OC)cc1", "values": [
      {"measurement": "carcinogen call", "setting": "Species: MOUSE, Strain/Sex: B6C3F1/FEMALE, Route: ORAL, Dose: 0, 2500, 5000 PPM IN DIET FOR 103 WK (STUDY DURATION: 104-105 WK), Dose: 0, 2500, 5000 PPM IN DIET FOR 103 WK (STUDY DURATION: 104-105 WK)", "result": "inactive; negative"},
      {"measurement": "carcinogen call", "setting": "Species: MOUSE, Strain/Sex: B6C3F1/MALE, Route: ORAL, Dose: 0, 2500, 5000 PPM IN DIET FOR 103 WK (STUDY DURATION: 104-105 WK), Dose: 0, 2500, 5000 PPM IN DIET FOR 103 WK (STUDY DURATION: 104-105 WK), Tumor Site: Type of Lesion: LUNG: ALVEOLAR/BRONCHIOLAR ADENOMA OR CARCINOMA", "result": "equivocal"},
      {"measurement": "carcinogen call", "setting": "Species: RAT, Strain/Sex: F344/FEMALE, Route: ORAL, Dose: 0, 2500, 5000 PPM IN DIET FOR 103 WK (STUDY DURATION: 105-106 WK), Dose: 0, 2500, 5000 PPM IN DIET FOR 103 WK (STUDY DURATION: 105-106 WK)", "result": "inactive; negative"},
      {"measurement": "carcinogen call", "setting": "Species: RAT, Strain/Sex: F344/MALE, Route: ORAL, Dose: 0, 2500, 5000 PPM IN DIET FOR 103 WK (STUDY DURATION: 105-106 WK), Dose: 0, 2500, 5000 PPM IN DIET FOR 103 WK (STUDY DURATION: 105-106 WK)", "result": "inactive; negative"}
    ]},
    {"smiles": "CCNN", "values": [
      {"measurement": "carcinogen call", "setting": "Species: MOUSE, Strain/Sex: SWISS/FEMALE, Route: ORAL, Dose: 0, 0.0125% IN DRINKING WATER FOR LIFE FOR AN AVERAGE DAILY DOSE OF 0, 0.92 MG (STUDY DURATION: 130 WK), Dose: 0, 0.0125% IN DRINKING WATER FOR LIFE FOR AN AVERAGE DAILY DOSE OF 0, 0.92 MG (STUDY DURATION: 130 WK), Tumor Site: Type of Lesion: LUNG: ADENOMA OR ADENOCARCINOMA, BLOOD VESSEL: ANGIOSARCOMA OR ANGIOMA", "result": "active; positive"},
      {"measurement": "carcinogen call", "setting": "Species: MOUSE, Strain/Sex: SWISS/MALE, Route: ORAL, Dose: 0, 0.0125% IN DRINKING WATER FOR LIFE FOR AN AVERAGE DAILY DOSE OF 0, 1.52 MG (STUDY DURATION: 130 WK), Dose: 0, 0.0125% IN DRINKING WATER FOR LIFE FOR AN AVERAGE DAILY DOSE OF 0, 1.52 MG (STUDY DURATION: 130 WK), Tumor Site: Type of Lesion: LUNG: ADENOMA OR ADENOCARCINOMA, BLOOD VESSEL: ANGIOSARCOMA OR ANGIOMA", "result": "active; positive"}
    ]},
    {"smiles": "C=C1C[C@]23C[C@@]1(O)CC[C@H]2[C@@]12C=C[C@H](O)[C@@](C)(C(=O)O1)[C@H]2[C@@H]3C(=O)O", "values": [
      {"measurement": "carcinogen call", "setting": "Species: MOUSE, Strain/Sex: SWISS/FEMALE, Route: GAVAGE, Dose: 0, 3 PPM IN 0.3 ML PHYSIOLOGICAL SALINE 2/WK FOR 22 MO (STUDY DURATION: 22 MO), Tumor Site: Type of Lesion: BREAST: ADENOCARCINOMA, SKIN: SEBACEOUS ADENOMA", "result": "active; positive"},
      {"measurement": "carcinogen call", "setting": "Species: MOUSE, Strain/Sex: SWISS/MALE, Route: GAVAGE, Dose: 0, 3 PPM IN 0.3 ML PHYSIOLOGICAL SALINE 2/WK FOR 22 MO (STUDY DURATION: 22 MO), Tumor Site: Type of Lesion: SKIN: SEBACEOUS ADENOMA, LUNG: TUMOR", "result": "active; positive"}
    ]}
  ]
}
